{"source": "a compilation of properties of binary mixtures (doi:10.1039/b303735e)", "experiment": "xn = mol fraction of the nth substance listed", "conditions": "298.15 K, 101.3 kPa"}
{"smiles": "CCCC[n+]1ccn(C)c1.F[B-](F)(F)F", "note": "+ CC#N", "values": [{"measurement": "viscosity", "setting": "x2 = 0", "value": 110, "unit": "mPa·s"}, {"measurement": "viscosity", "setting": "x2 = 0.0982", "value": 70.9, "unit": "mPa·s"}, {"measurement": "viscosity", "setting": "x2 = 0.2265", "value": 40.3, "unit": "mPa·s"}, {"measurement": "viscosity", "setting": "x2 = 0.3047", "value": 27.7, "unit": "mPa·s"}, {"measurement": "viscosity", "setting": "x2 = 0.4554", "value": 13.2, "unit": "mPa·s"}, {"measurement": "viscosity", "setting": "x2 = 0.5059", "value": 10.22, "unit": "mPa·s"}, {"measurement": "viscosity", "setting": "x2 = 0.5469", "value": 8.25, "unit": "mPa·s"}, {"measurement": "viscosity", "setting": "x2 = 0.6005", "value": 6.07, "unit": "mPa·s"}, {"measurement": "viscosity", "setting": "x2 = 0.6441", "value": 4.58, "unit": "mPa·s"}, {"measurement": "viscosity", "setting": "x2 = 0.6973", "value": 3.34, "unit": "mPa·s"}, {"measurement": "viscosity", "setting": "x2 = 0.9513", "value": 0.593, "unit": "mPa·s"}]}
{"smiles": "CCCC[n+]1ccn(C)c1.F[B-](F)(F)F", "note": "+ CCC(C)=O", "values": [{"measurement": "viscosity", "setting": "x2 = 0", "value": 110, "unit": "mPa·s"}]}
{"smiles": "CC#N", "note": "+ CCCC[n+]1ccn(C)c1.F[B-](F)(F)F", "values": [{"measurement": "viscosity", "setting": "x1 = 1", "value": 0.341, "unit": "mPa·s"}]}
{"smiles": "CCC(C)=O", "note": "+ CCCC[n+]1ccn(C)c1.F[B-](F)(F)F", "values": [{"measurement": "viscosity", "setting": "x1 = 0.2004", "value": 42.2, "unit": "mPa·s"}, {"measurement": "viscosity", "setting": "x1 = 0.3969", "value": 15.2, "unit": "mPa·s"}, {"measurement": "viscosity", "setting": "x1 = 0.4495", "value": 11.97, "unit": "mPa·s"}, {"measurement": "viscosity", "setting": "x1 = 0.5", "value": 9.32, "unit": "mPa·s"}, {"measurement": "viscosity", "setting": "x1 = 0.5521", "value": 7.13, "unit": "mPa·s"}, {"measurement": "viscosity", "setting": "x1 = 0.6062", "value": 5.38, "unit": "mPa·s"}, {"measurement": "viscosity", "setting": "x1 = 0.6545", "value": 4.1, "unit": "mPa·s"}, {"measurement": "viscosity", "setting": "x1 = 0.8137", "value": 1.55, "unit": "mPa·s"}, {"measurement": "viscosity", "setting": "x1 = 0.8974", "value": 0.847, "unit": "mPa·s"}, {"measurement": "viscosity", "setting": "x1 = 0.9502", "value": 0.564, "unit": "mPa·s"}, {"measurement": "viscosity", "setting": "x1 = 1", "value": 0.373, "unit": "mPa·s"}]}
{"smiles": "ClCCl", "note": "+ CCCC[n+]1ccn(C)c1.F[B-](F)(F)F", "values": [{"measurement": "viscosity", "setting": "x1 = 0.199", "value": 37.2, "unit": "mPa·s"}, {"measurement": "viscosity", "setting": "x1 = 0.2854", "value": 26.3, "unit": "mPa·s"}, {"measurement": "viscosity", "setting": "x1 = 0.3985", "value": 17, "unit": "mPa·s"}, {"measurement": "viscosity", "setting": "x1 = 0.5452", "value": 10.05, "unit": "mPa·s"}, {"measurement": "viscosity", "setting": "x1 = 0.5958", "value": 7.69, "unit": "mPa·s"}, {"measurement": "viscosity", "setting": "x1 = 0.6471", "value": 5.92, "unit": "mPa·s"}, {"measurement": "viscosity", "setting": "x1 = 0.6958", "value": 4.6, "unit": "mPa·s"}, {"measurement": "viscosity", "setting": "x1 = 0.8019", "value": 2.59, "unit": "mPa·s"}, {"measurement": "viscosity", "setting": "x1 = 0.9015", "value": 1.12, "unit": "mPa·s"}, {"measurement": "viscosity", "setting": "x1 = 0.9477", "value": 0.715, "unit": "mPa·s"}, {"measurement": "viscosity", "setting": "x1 = 1", "value": 0.401, "unit": "mPa·s"}]}
{"smiles": "CCCC[n+]1ccn(C)c1.F[B-](F)(F)F", "note": "+ CN(C)C=O", "values": [{"measurement": "viscosity", "setting": "x2 = 0", "value": 110, "unit": "mPa·s"}, {"measurement": "viscosity", "setting": "x2 = 0.2041", "value": 52.2, "unit": "mPa·s"}, {"measurement": "viscosity", "setting": "x2 = 0.3024", "value": 32.9, "unit": "mPa·s"}, {"measurement": "viscosity", "setting": "x2 = 0.4061", "value": 20.8, "unit": "mPa·s"}, {"measurement": "viscosity", "setting": "x2 = 0.4408", "value": 17.6, "unit": "mPa·s"}, {"measurement": "viscosity", "setting": "x2 = 0.5052", "value": 12.7, "unit": "mPa·s"}, {"measurement": "viscosity", "setting": "x2 = 0.5459", "value": 11, "unit": "mPa·s"}, {"measurement": "viscosity", "setting": "x2 = 0.6014", "value": 7.8, "unit": "mPa·s"}, {"measurement": "viscosity", "setting": "x2 = 0.665", "value": 6.4, "unit": "mPa·s"}, {"measurement": "viscosity", "setting": "x2 = 0.701", "value": 5.04, "unit": "mPa·s"}, {"measurement": "viscosity", "setting": "x2 = 0.8008", "value": 2.91, "unit": "mPa·s"}, {"measurement": "viscosity", "setting": "x2 = 0.9005", "value": 1.6, "unit": "mPa·s"}, {"measurement": "viscosity", "setting": "x2 = 0.947", "value": 1.19, "unit": "mPa·s"}]}
{"smiles": "CCCC[n+]1ccn(C)c1.F[B-](F)(F)F", "note": "+ ClCCl", "values": [{"measurement": "viscosity", "setting": "x2 = 0", "value": 110, "unit": "mPa·s"}]}
